# Measurements from paper PMC6507131, “Evaluation of the novel liver micronucleus assay using formalin-fixed tissues” (Genes and Environment, 2019).
# “Also recorded” adds a separate entry of the source. Structures can show the parent of a compound that is named as a salt.
# What was measured:
# [1] = tested on: hepatocytes of formalin-fixed liver tissues; conditions: rat, in vivo; for RDLMN test result (liver micronucleus induction), formalin-fixed method: po
# [2] = tested on: hepatocytes (liver); conditions: rat, in vivo, cited from earlier work; for RDLMN test result (liver micronucleus induction), collagenase digestion method: po
# [3] = tested on: liver; conditions: in vivo; cited from earlier work
# [4] = tested on: hepatocytes (liver); test: Repeated-dose liver micronucleus (RDLMN) assay, collagenase digestion method; type: in vivo, rat; conditions: comparison between the two methods
# [5] = tested on: bone marrow; design: method as in PMID 9707102; conditions: cited from earlier work
# [6] = tested on: liver; design: method as in PMID 25892619, PMID 25892626; conditions: previous study; cited from earlier work
# [7] = design: method as in PMID 15979392; conditions: cited from earlier work
Structure (SMILES),"RDLMN test result (liver micronucleus induction), formalin-fixed method [1]","RDLMN test result (liver micronucleus induction), collagenase digestion method [2]",Hepatocarcinogen / non-hepatocarcinogen classification [3],other results
"CC(=O)Nc1ccc2c(c1)Cc1ccccc1-2 [2-AAF, 2-Acetylaminofluorene]",positive,positive,Hepatocarcinogen,–
"CC(C)[N+](=O)[O-] [2-NP, 2-Nitropropane]",positive,positive,–,–
"CCOC(=O)C(C)(C)Oc1ccc(Cl)cc1 [CFB, Clofibrate]",–,–,Hepatocarcinogen,–
"O.O=P1(N(CCCl)CCCl)NCCCO1 (stereo not shown) [CP, Cyclophosphamide H2O]",negative,negative,Non-hepatocarcinogen,–
"CN(C)c1ccc(N=Nc2ccccc2)cc1 [DAB, p-Dimethylaminoazobenzene]",positive,positive,Hepatocarcinogen,–
"CN(C)N=O [DMN, Dimethylnitrosoamine]",positive,positive,Hepatocarcinogen,Frequency of MNHEPs by the formalin-fixed method compared with the collagenase digestion method [1]: Relatively higher frequencies of MNHEPs
"C[C@H]1C(=O)O[C@@H]2CCN3CC=C(COC(=O)[C@](C)(O)[C@]1(C)O)[C@H]23 [MCT, Monocrotaline]",positive,positive,Hepatocarcinogen,–
"COS(C)(=O)=O [MMS, Methyl methanesulfonate]",positive,positive,Non-hepatocarcinogen,–
"CN(C)CCN(Cc1cccs1)c1ccccn1 [MP, Methapyrilene HCl]",–,–,Hepatocarcinogen,–
"CCCN(CCC)N=O [NDPA, N-Nitrosodipropylamine]",positive,positive,Hepatocarcinogen,Frequency of MNHEPs by the formalin-fixed method compared with the collagenase digestion method [1]: Relatively higher frequencies of MNHEPs
"O=NN1CCOCC1 [NMOR, N-Nitrosomorpholine]",positive,positive,Hepatocarcinogen,–
"O=NN1CCCC1 [NPYR, N-Nitrosopyrrolidine]",–,–,Hepatocarcinogen,Micronucleus induction by the collagenase digestion method compared with the formalin-fixed method [4]: the same trend; also recorded: higher micronucleus induction
"c1ccc2ncccc2c1 [QUN, Quinoline]",positive,positive,–,–
"Oc1ccc2ccccc2c1N=Nc1ccccc1 [Sudan I, Sudan I (C.I.solvent yellow 14)]",positive,negative,Hepatocarcinogen,"short-term bone marrow micronucleus assay result [5]: positive; Dose dependence of liver micronucleus induction, collagenase digestion method [2]: a tendency, though slight, toward a dose-dependent increase; Histopathological finding in the liver [6]: remarkable HEP hypertrophy; in vitro chromosome aberration test result [7]: negative; liver carcinogenicity [3]: positive"
"CC(=N)S [TAA, Thioacetamide]",positive,negative,Hepatocarcinogen,Frequency of MNHEPs by the formalin-fixed method compared with the collagenase digestion method [1]: comparable
